In PubChem BioAssay AID248 (DTP/NCI, 2004) one finds T/C data, which are given here for 19 molecules.

SMILES strings stand for the structures. Inconclusive results and toxic doses are left out.

This assay deals with L1210 leukemia ip in BDF1 mice, survival T/C. Kind of assay: NCI In Vivo Anticancer Drug Screen. Data for tumor model L1210 Leukemia (intraperitoneal) in B6D2F1 (BDF1) mice. Particulars: endpoint: mean survival time, higher = longer survival. The method, boiled down:
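Tumor cells were implanted, animals were treated, and survival was followed. The result divides the treated measurement by the vehicle-control measurement.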

Setting [1] is: dose: 100.0 mg/kg/injection, schedule: Q04DX002 (ip), vehicle: Klucel (hydroxypropylcellulose) (HPC).
Where [2] appears, read: dose: 200.0 mg/kg/injection, schedule: Q04DX002 (ip), vehicle: Klucel (hydroxypropylcellulose) (HPC).
Setting [3] is: dose: 100.0 mg/kg/injection, schedule: Q01DX001 (ip), vehicle: Klucel (hydroxypropylcellulose) (HPC).
[4] abbreviates: dose: 200.0 mg/kg/injection, schedule: Q01DX001 (ip), vehicle: Klucel (hydroxypropylcellulose) (HPC).
The mark [5] stands for this setting: dose: 100.0 mg/kg/injection, schedule: Q01DX009 (ip), vehicle: saline with Tween-80.
Where [6] appears, read: dose: 100.0 mg/kg/injection, schedule: Q04DX003 (ip), vehicle: Klucel (hydroxypropylcellulose) (HPC).
[7] abbreviates: dose: 200.0 mg/kg/injection, schedule: Q04DX003 (ip), vehicle: Klucel (hydroxypropylcellulose) (HPC).
[8] abbreviates: dose: 200.0 mg/kg/injection, schedule: Q04DX003 (ip), vehicle: saline with Tween-80.
Where [9] appears, read: dose: 100.0 mg/kg/injection, schedule: Q01DX009 (ip), vehicle: Klucel (hydroxypropylcellulose) (HPC).
The mark [10] stands for this setting: dose: 200.0 mg/kg/injection, schedule: Q01DX009 (ip), vehicle: Klucel (hydroxypropylcellulose) (HPC).
[11] abbreviates: dose: 400.0 mg/kg/injection, schedule: Q04DX003 (ip), vehicle: Klucel (hydroxypropylcellulose) (HPC).

Consider `CN=C([Se])NC`, for which the T/C by setting is: (dose: 3.13 mg/kg/injection, schedule: Q01DX009 (ip), vehicle: saline with Tween-80) 106 % of control; (dose: 3.13 mg/kg/injection, schedule: Q04DX002 (ip), vehicle: saline with Tween-80) 98 % of control; (dose: 6.25 mg/kg/injection, schedule: Q01DX009 (ip), vehicle: saline with Tween-80) 103 % of control; (dose: 6.25 mg/kg/injection, schedule: Q04DX002 (ip), vehicle: saline with Tween-80) 95 % of control; (dose: 12.5 mg/kg/injection, schedule: Q01DX009 (ip), vehicle: saline with Tween-80) 97 % of control; (dose: 12.5 mg/kg/injection, schedule: Q04DX002 (ip), vehicle: saline with Tween-80) 87 % of control.

As for `Nc1ccc(C(=O)O)c(F)c1`, the T/C under setting [1] was 101 % of control; the T/C under setting [2] was 104 % of control; the T/C (dose: 400.0 mg/kg/injection, schedule: Q04DX002 (ip), vehicle: Klucel (hydroxypropylcellulose) (HPC)) was 101 % of control.

`CN(C1=CC(=O)C(=O)c2ccccc21)c1ccccc1`: the T/C by setting is: (dose: 50.0 mg/kg/injection, schedule: Q01DX001 (ip), vehicle: Klucel (hydroxypropylcellulose) (HPC)) 95 % of control; under setting [3], 97 % of control; under setting [4], 97 % of control.

For `O=C(OCn1ncc2ccc([N+](=O)[O-])cc21)c1ccc(Cl)c(Cl)c1`, the T/C runs as follows: (dose: 100.0 mg/kg/injection, schedule: Q01DX001 (ip), vehicle: carboxymethylcellulose (CMC)) 101 % of control; (dose: 200.0 mg/kg/injection, schedule: Q01DX001 (ip), vehicle: carboxymethylcellulose (CMC)) 93 % of control; (dose: 400.0 mg/kg/injection, schedule: Q01DX001 (ip), vehicle: carboxymethylcellulose (CMC)) 95 % of control.

On to `Cc1ccc(NC(=O)c2ccccc2Cl)cc1C`, for which the T/C runs as follows: under setting [5], 90 % of control; (dose: 200.0 mg/kg/injection, schedule: Q01DX009 (ip), vehicle: saline with Tween-80) 97 % of control; (dose: 400.0 mg/kg/injection, schedule: Q01DX009 (ip), vehicle: saline with Tween-80) 104 % of control.

Turning to `NNC(=S)Nc1cccc(Cl)c1`, the T/C is, setting by setting: (dose: 75.0 mg/kg/injection, schedule: Q01DX001 (ip), vehicle: saline) 103 % of control; (dose: 150.0 mg/kg/injection, schedule: Q01DX001 (ip), vehicle: saline) 102 % of control.

For `COc1ccccc1/C=C/C(=O)O`, the T/C is, setting by setting: (dose: 25.0 mg/kg/injection, schedule: Q04DX002 (ip), vehicle: Klucel (hydroxypropylcellulose) (HPC)) 98 % of control; (dose: 50.0 mg/kg/injection, schedule: Q04DX002 (ip), vehicle: Klucel (hydroxypropylcellulose) (HPC)) 100 % of control; under setting [1], 88 % of control.

Turning to `COc1ccc(CCC(=O)c2ccccc2)cc1`, the T/C is, setting by setting: (dose: 50.0 mg/kg/injection, schedule: Q04DX003 (ip), vehicle: Klucel (hydroxypropylcellulose) (HPC)) 98 % of control; under setting [6], 104 % of control; under setting [7], 107 % of control.

Regarding `COC(=O)c1cccc(OC)c1-c1c(OC)cccc1C(=O)OC`, the T/C under setting [3] was 105 % of control; the T/C under setting [4] is 103 % of control; the T/C (dose: 400.0 mg/kg/injection, schedule: Q01DX001 (ip), vehicle: Klucel (hydroxypropylcellulose) (HPC)) was 102 % of control.

Consider `OC1CCC(CC2CCCCC2)CC1` (configuration not stated), for which the T/C is 92 % of control under setting [8] and 91 % of control (dose: 400.0 mg/kg/injection, schedule: Q04DX003 (ip), vehicle: saline with Tween-80).

Turning to `O=NN(CCCl)C(=O)NC1CCC(Cl)CC1` (configuration not stated), the T/C by setting is: (dose: 12.0 mg/kg/injection, schedule: Q01DX001 (ip), vehicle: Klucel (hydroxypropylcellulose) (HPC)) 123 % of control; (dose: 21.0 mg/kg/injection, schedule: Q01DX001 (ip), vehicle: Klucel (hydroxypropylcellulose) (HPC)) 217 % of control; (dose: 21.0 mg/kg/injection, schedule: Q01DX001 (ip), vehicle: carboxymethylcellulose (CMC)) 182 % of control; (dose: 26.0 mg/kg/injection, schedule: Q01DX001 (ip), vehicle: Klucel (hydroxypropylcellulose) (HPC)) 303 % of control; (dose: 34.0 mg/kg/injection, schedule: Q01DX001 (ip), vehicle: Klucel (hydroxypropylcellulose) (HPC)) 387 % of control; (dose: 34.0 mg/kg/injection, schedule: Q01DX001 (ip), vehicle: carboxymethylcellulose (CMC)) 346 % of control. In addition, the T/C is, setting by setting: (dose: 40.0 mg/kg/injection, schedule: Q01DX001 (ip), vehicle: Klucel (hydroxypropylcellulose) (HPC)) 291 % of control; (dose: 49.0 mg/kg/injection, schedule: Q01DX001 (ip), vehicle: Klucel (hydroxypropylcellulose) (HPC)) 460 % of control; (dose: 49.0 mg/kg/injection, schedule: Q01DX001 (ip), vehicle: carboxymethylcellulose (CMC)) 469 % of control; (dose: 60.0 mg/kg/injection, schedule: Q01DX001 (ip), vehicle: Klucel (hydroxypropylcellulose) (HPC)) 275 % of control; (dose: 74.0 mg/kg/injection, schedule: Q01DX001 (ip), vehicle: Klucel (hydroxypropylcellulose) (HPC)) 439 % of control; (dose: 74.0 mg/kg/injection, schedule: Q01DX001 (ip), vehicle: carboxymethylcellulose (CMC)) 469 % of control. Moreover, the T/C was 91 % of control (dose: 90.0 mg/kg/injection, schedule: Q01DX001 (ip), vehicle: Klucel (hydroxypropylcellulose) (HPC)); 218 % of control (dose: 110.0 mg/kg/injection, schedule: Q01DX001 (ip), vehicle: Klucel (hydroxypropylcellulose) (HPC)); 153 % of control (dose: 110.0 mg/kg/injection, schedule: Q01DX001 (ip), vehicle: carboxymethylcellulose (CMC)); 98 % of control (dose: 133.0 mg/kg/injection, schedule: Q01DX001 (ip), vehicle: Klucel (hydroxypropylcellulose) (HPC)).

For `O=C(Nc1ccccc1C(F)(F)F)c1ccc(Cl)c(Cl)c1`, the T/C was 92 % of control under setting [9]; 91 % of control under setting [6]; 89 % of control under setting [10]; 90 % of control under setting [7]; 88 % of control under setting [11].

Take `O=C1CCC23/C=C/C(=O)NCCCCNCCCNC(=O)/C=C/c4ccc(c2c4)OC3C1` (configuration not stated): the T/C was 101 % of control (dose: 100.0 mg/kg/injection, schedule: Q01DX001 (ip), vehicle: saline with Tween-80); 95 % of control (dose: 200.0 mg/kg/injection, schedule: Q01DX001 (ip), vehicle: saline with Tween-80); 91 % of control (dose: 400.0 mg/kg/injection, schedule: Q01DX001 (ip), vehicle: saline with Tween-80).

Consider `COC1C(O)C(CO)OC1n1cc(F)c(=O)[nH]c1=O` (configuration not stated), for which the T/C was 107 % of control (dose: 100.0 mg/kg/injection, schedule: Q01DX001 (ip), vehicle: saline); 104 % of control (dose: 200.0 mg/kg/injection, schedule: Q01DX001 (ip), vehicle: saline); 111 % of control (dose: 400.0 mg/kg/injection, schedule: Q01DX001 (ip), vehicle: saline).

`C#Cc1ccc([N+](=O)[O-])cc1`: the T/C is, setting by setting: under setting [9], 95 % of control; under setting [6], 88 % of control; under setting [10], 94 % of control; under setting [7], 91 % of control; (dose: 400.0 mg/kg/injection, schedule: Q01DX009 (ip), vehicle: Klucel (hydroxypropylcellulose) (HPC)) 95 % of control; under setting [11], 93 % of control.

As to `CCCCC(CC)CCC(C)O` (configuration not stated), the T/C (dose: 50.0 mg/kg/injection, schedule: Q01DX009 (ip), vehicle: saline with Tween-80) was 96 % of control; the T/C under setting [5] is 94 % of control; the T/C (dose: 100.0 mg/kg/injection, schedule: Q04DX003 (ip), vehicle: saline with Tween-80) is 108 % of control; the T/C under setting [8] was 95 % of control.

`C=CS(=O)(=O)CCOc1ccc(Cl)cc1Cl`: the T/C is, setting by setting: under setting [9], 96 % of control; under setting [10], 95 % of control.

Consider `CN(CC(=O)O)CC1C(c2ccccc2)C1c1ccccc1` (configuration not stated), for which the T/C was 100 % of control under setting [1] and 93 % of control under setting [2].

Take `O=[N+]([O-])c1ccc(C=Nc2cccc(C(F)(F)F)c2)cc1`: the T/C is 90 % of control under setting [9]; 90 % of control under setting [6]; 98 % of control under setting [10]; 95 % of control under setting [7]; 93 % of control under setting [11].
